Source: ChEMBL document CHEMBL1764960, “Stereochemical investigations of isochromenones and isobenzofuranones isolated from Leptosphaeria sp. KTC 727” (J Nat Prod, 2011)
Converted amounts (≈) assume the structure as drawn.

Each compound was assayed on Bipolaris oryzae (assay: Antifungal activity against Cochliobolus miyabeanus assessed as hyphal growth inhibition after 36 hrs).
Assay type: functional, organism-based

**Q.** With `C=C1OC(=O)c2c(O)cc(O)c(C)c2[C@@]1(C)O` as the compound, how does the IC50 read?
**A.** Its IC50 is 10 mg/L (≈ 42.3 µM).

**Q.** For `COc1cc(O)c2c(c1C)[C@](C)([C@H](C)O)OC2=O`, which IC50 is on record?
**A.** The IC50 was 500 mg/L (≈ 1980 µM).

**Q.** Which IC50 does the source give for `C=C1OC(=O)c2c(O)cc(OC)c(C)c2[C@@]1(C)O` here?
**A.** Its IC50 is 0.5 mg/L (≈ 2 µM).

**Q.** `COc1cc(O)c2c(c1C)[C@](C)(C(C)=O)OC2=O` was tested. Which IC50 did it give?
**A.** The IC50 was 10 mg/L (≈ 40 µM).
